Measured values reported in patent US10829520B2, “Beta-hairpin peptidomimetics” (POLYPHOR AG, priority 2015, dated 2020).
Where two headings read alike, the source gives them in different places. Where a SMILES comes first, the peptide text is derived from it. Bridges are numbered along the chain shown (N, C = ends). [ ]: non-standard residue; d: D form. dHyp = O=C(O)[C@H]1C[C@H](O)CN1; Pen = CC(C)(S)[C@H](N)C(=O)O; Tle = CC(C)(C)[C@H](N)C(=O)O; NMeC = CN[C@@H](CS)C(=O)O; dDab = NCC[C@@H](N)C(=O)O; Nle = CCCC[C@H](N)C(=O)O; Orn = NCCC[C@H](N)C(=O)O; Dab = NCC[C@H](N)C(=O)O; Dap = NC[C@H](N)C(=O)O; Sar = CNCC(=O)O

Key:
Assay type in all cases: cell-based
[1] = system: human red blood cells (hRBC); assay: Hemolysis of human red blood cells; conditions: 100 μg/mL
How it was run: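 Washed fresh human erythrocytes (20% v/v, ~0.9×10^9 cells/mL final) were incubated with peptides at 100 μg/mL for 1 h at 37 °C with shaking. Supernatant OD540 measured; hemolysis expressed as % of 2.5% Triton X-100 lysis, with PBS/0.001% acetic acid as 0%.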

[2] = system: Klebsiella pneumoniae 968733
[3] = system: Klebsiella pneumoniae SSI #3010
How it was run: (§1)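 CLSI broth microdilution in cation-adjusted Mueller-Hinton II broth with 0.002% Polysorbate 80, inoculum appr. 10^6 CFU/mL, peptides in serial two-fold dilutions. MIC (μg/mL) is the lowest concentration with no visible growth after 18-20 hours at 35° C.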

[4] = system: Pseudomonas aeruginosa ATCC 27853
How it was run: as §1

[5] = system: Escherichia coli ATCC 25922
How it was run: as §1

Escherichia coli 926415 = system: Escherichia coli 926415
[6] = system: Acinetobacter baumannii DSM 30008
How it was run: as §1

[7] = system: Acinetobacter baumannii 872842
[8] = clinical isolate, Mueller-Hinton II broth, P-80 0.002% present

| Structure (SMILES) | Hemolysis at 100 μg/mL ([1]; red cells of human, 1 h) | Klebsiella pneumoniae 968733 MIC [2]; 968733 | Klebsiella pneumoniae SSI #3010 MIC ([3]; SSI #3010) | Pseudomonas aeruginosa ATCC 27853 MIC ([4]; ATCC 27853) | Escherichia coli ATCC 25922 MIC ([5]; ATCC 25922) | Escherichia coli 926415 MIC (Escherichia coli 926415; 926415) | Acinetobacter baumannii DSM 30008 MIC ([6]; DSM 30008) | Acinetobacter baumannii 872842 MIC [7]; 872842 | Hemolysis at 100 μg/mL ([1]; 20% hRBC, 1 h at 37° C.) | Klebsiella pneumoniae 968733 MIC [2, 8] | Klebsiella pneumoniae SSI #3010 MIC ([3]; Mueller-Hinton II broth) | Pseudomonas aeruginosa ATCC 27853 MIC ([4]; Mueller-Hinton II broth) | Escherichia coli ATCC 25922 MIC ([5]; Mueller-Hinton II broth) | Escherichia coli 926415 MIC (Escherichia coli 926415; [8]) | Acinetobacter baumannii DSM 30008 MIC ([6]; Mueller-Hinton II broth) | Acinetobacter baumannii 872842 MIC [7, 8] |
| --- | --- | --- | --- | --- | --- | --- | --- | --- | --- | --- | --- | --- | --- | --- | --- | --- |
| CCCC[C@@H]1NC(=O)[C@@H]2CCCN2C(=O)[C@H]2CCCN2C(=O)[C@H](CO)NC(=O)[C@H](CO)NC(=O)[C@H](C(C)(C)C)NC(=O)[C@H](CCN)NC(=O)[C@H](Cc2c[nH]c3ccccc23)NC(=O)[C@@H](N)CSSC[C@@H](C(=O)N[C@@H](CCN)C(=O)N[C@H](CCN)C(=O)N[C@H]2CCNC(=O)[C@H]([C@@H](C)O)NC(=O)[C@H](CCN)NC(=O)[C@H](CCN)NC(=O)[C@H](CC(C)C)NC(=O)[C@@H](Cc3ccccc3)NC(=O)[C@H](CCN)NC2=O)NC(=O)[C@H](CCCN)NC(=O)[C@H](CCN)NC(=O)[C@H](Cc2ccc(O)cc2)NC(=O)[C@H](CO)NC1=O [Ex. 205] (H-CW[Dab][Tle]SS[dP]P[Nle]SY[Dab][Orn]C[Dab][dDab][Dab][Dab][dF]L[Dab][Dab]T; disulfide 1-14; lactam 17-C) | <1% | 2 mg/L | 2 mg/L | 0.25 mg/L | 0.25 mg/L | 0.5 mg/L | 2 mg/L | 0.5 mg/L |  |  |  |  |  |  |  |  |
| CCCC[C@@H]1NC(=O)[C@@H]2CCCN2C(=O)[C@H]2CCCN2C(=O)[C@H](CO)NC(=O)[C@H](Cc2ccc(O)cc2)NC(=O)[C@H](C(C)(C)C)NC(=O)[C@H](CCN)NC(=O)[C@H](Cc2c[nH]c3ccccc23)NC(=O)[C@@H](NC)CSSC[C@@H](C(=O)N[C@H](CCN)C(=O)N[C@H]2CCNC(=O)[C@H]([C@@H](C)O)NC(=O)[C@H](CCN)NC(=O)[C@H](CCN)NC(=O)[C@H](CC(C)C)NC(=O)[C@@H](CC(C)C)NC(=O)[C@H](CCN)NC2=O)NC(=O)[C@H](CCCN)NC(=O)[C@H](CCN)NC(=O)[C@H](Cc2ccc(O)cc2)NC(=O)[C@H](CO)NC1=O [Ex. 207] (H-[NMeC]W[Dab][Tle]YS[dP]P[Nle]SY[Dab][Orn]C[dDab][Dab][Dab][dL]L[Dab][Dab]T; disulfide 1-14; lactam 16-C) | 1% | 0.5 mg/L | 0.125 mg/L | 2 mg/L | 0.125 mg/L | 0.25 mg/L | 2 mg/L | 1 mg/L |  |  |  |  |  |  |  |  |
| CC(C)C[C@@H]1NC(=O)[C@@H](CC(C)C)NC(=O)[C@H](CCN)NC(=O)[C@@H](NC(=O)[C@@H](CCN)NC(=O)[C@@H]2CSSC(C)(C)[C@H](N)C(=O)N[C@@H](Cc3c[nH]c4ccccc34)C(=O)N[C@@H](CCN)C(=O)N[C@@H](C(C)C)C(=O)N[C@@H](CO)C(=O)N[C@@H](CO)C(=O)N3C[C@@H](O)C[C@@H]3C(=O)N3CCC[C@H]3C(=O)N[C@@H](CC(C)C)C(=O)N[C@@H](CO)C(=O)N[C@@H](Cc3ccc(O)cc3)C(=O)N[C@@H](CCN)C(=O)N[C@@H](CCCN)C(=O)N2)CCNC(=O)[C@H]([C@@H](C)O)NC(=O)[C@H](CCN)NC(=O)[C@H](CCN)NC1=O [Ex. 208] (H-[Pen]W[Dab]VSS[dHyp]PLSY[Dab][Orn]C[dDab][Dab][Dab][dL]L[Dab][Dab]T; disulfide 1-14; lactam 16-C) | <1% | 8 mg/L | 1 mg/L | 2 mg/L | 0.25 mg/L | 0.5 mg/L | 1 mg/L | 2 mg/L |  |  |  |  |  |  |  |  |
| CC(C)C[C@@H]1NC(=O)[C@@H](CC(C)C)NC(=O)[C@H](CCN)NC(=O)[C@@H](NC(=O)[C@@H](CCN)NC(=O)[C@@H]2CSSC[C@H](N)C(=O)N[C@@H](Cc3c[nH]c4ccccc34)C(=O)N[C@@H](CCN)C(=O)N[C@@H](C(C)C)C(=O)N[C@@H]([C@@H](C)O)C(=O)N[C@@H](Cc3ccc(O)cc3)C(=O)N3CCC[C@@H]3C(=O)N3CCC[C@H]3C(=O)N[C@@H](CC(C)C)C(=O)N[C@@H](CO)C(=O)N[C@@H](Cc3ccc(O)cc3)C(=O)N[C@@H](CCN)C(=O)N[C@@H](CCN)C(=O)N2)CCNC(=O)[C@H]([C@@H](C)O)NC(=O)[C@H](CCN)NC(=O)[C@H](CCN)NC1=O [Ex. 209] (H-CW[Dab]VTY[dP]PLSY[Dab][Dab]C[dDab][Dab][Dab][dL]L[Dab][Dab]T; disulfide 1-14; lactam 16-C) | 3% | 0.5 mg/L | 0.25 mg/L | 1 mg/L | 0.125 mg/L | 0.25 mg/L | 0.5 mg/L | 0.5 mg/L |  |  |  |  |  |  |  |  |
| CCCC[C@@H]1NC(=O)[C@@H]2CCCN2C(=O)[C@H]2CCCN2C(=O)[C@H](CO)NC(=O)[C@H](C)NC(=O)[C@H](C(C)(C)C)NC(=O)[C@@H]2CCC(=O)NCC[C@H](NC(=O)[C@H](Cc3ccc(O)cc3)NC(=O)[C@H](CN)NC1=O)C(=O)N[C@@H](CCCN)C(=O)N[C@H](C(=O)N[C@H](CCN)C(=O)N[C@H]1CCNC(=O)[C@H]([C@@H](C)O)NC(=O)[C@H](CCN)NC(=O)[C@H](CCN)NC(=O)[C@H](CC(C)C)NC(=O)[C@@H](Cc3ccccc3)NC(=O)[C@H](CCN)NC1=O)CSSC[C@H](N)C(=O)N[C@@H](Cc1c[nH]c3ccccc13)C(=O)N2 [Ex. 210] (H-CWE[Tle]AS[dP]P[Nle][Dap]Y[Dab][Orn]C[dDab][Dab][Dab][dF]L[Dab][Dab]T; disulfide 1-14; lactam 3-12, 16-C) | 1% | 4 mg/L | 0.5 mg/L | 1 mg/L | 0.25 mg/L | 0.5 mg/L | 1 mg/L | 2 mg/L |  |  |  |  |  |  |  |  |
| CC(=O)N[C@H]1CSSC[C@@H](C(=O)N[C@H](CCN)C(=O)N[C@H]2CCNC(=O)[C@H]([C@@H](C)O)NC(=O)[C@H](CCN)NC(=O)[C@H](CCN)NC(=O)[C@H](CC(C)C)NC(=O)[C@@H](Cc3ccccc3)NC(=O)[C@H](CCN)NC2=O)NC(=O)[C@H](CCCN)NC(=O)[C@H](CC(N)=O)NC(=O)[C@H](Cc2ccc(O)cc2)NC(=O)[C@@H]2CSSC[C@H](NC(=O)[C@H](Cc3ccc(O)cc3)NC(=O)[C@H](CO)NC(=O)[C@H](Cc3c[nH]c4ccccc34)NC1=O)C(=O)N[C@@H](C(C)C)C(=O)N[C@H](CCN)C(=O)N[C@@H](CCCNC(=N)N)C(=O)N[C@@H](CC(C)C)C(=O)N2 [Ex. 211] (Ac-CWSYCV[dDab]RLCYN[Orn]C[dDab][Dab][Dab][dF]L[Dab][Dab]T; disulfide 1-14, 5-10; lactam 16-C) |  |  |  |  |  |  |  |  | 2% | 8 mg/L | 1 mg/L | 2 mg/L | 0.5 mg/L | 2 mg/L | 1 mg/L | 2 mg/L |
| CC(C)C[C@@H]1NC(=O)[C@@H](CC(C)C)NC(=O)[C@H](CCN)NC(=O)[C@@H](NC(=O)[C@H](CCN)NC(=O)CN(C)C(=O)[C@@H]2CSSC[C@H](N)C(=O)N[C@@H](Cc3c[nH]c4ccccc34)C(=O)N[C@@H](CCN)C(=O)N[C@@H](C(C)C)C(=O)N[C@H]3CSSC[C@H](NC(=O)[C@H](CC(C)C)NC(=O)[C@@H]4CCCN4C(=O)[C@H]4CCCN4C(=O)[C@H](CO)NC3=O)C(=O)N[C@@H](Cc3ccc(O)cc3)C(=O)N[C@@H](CCN)C(=O)N[C@@H](CCCN)C(=O)N2)CCNC(=O)[C@H]([C@@H](C)O)NC(=O)[C@H](CCN)NC(=O)[C@H](CCN)NC1=O [Ex. 212] (H-CW[Dab]VCS[dP]PLCY[Dab][Orn]C[Sar][Dab][Dab][Dab][dL]L[Dab][Dab]T; disulfide 1-14, 5-10; lactam 17-C) |  |  |  |  |  |  |  |  | 1% | 4 mg/L | 2 mg/L | 0.5 mg/L | 0.5 mg/L | 1 mg/L | 1 mg/L | 1 mg/L |
